# Laboratory results as given in article PMC11272821, “Mechanistic safety assessment via multi-omic characterisation of systemic pathway perturbations following in vivo MAT2A inhibition” (Archives of Toxicology, 2024).
# System: rat liver proteome
# Test: Liver label-free quantitative proteomics
# Format: in vivo
# Description: Liver tissue were homogenized in PreOmics iST buffer (PreOmics) using a bead ruptor. […] Peptides were purified using PreOmics iST cartridges and vacuum-centrifuged to dryness. Peptides were subsequently reconstituted in 2 vol% ACN and 0.1 vol% formic acid for single-run LC–MS analysis. Peptides were analyzed using a Thermo EASY-nLC1200 coupled online to an Exploris 480 Mass Spectrometer equipped with a Nanospray Flex Ion Source integrated with a column oven (PRSO-V1, Sonation) and a FAIMS unit. Peptides were separated using a nonlinear gradient and analyzed by acquiring spectra through Data Independent Acquisition (DIA). Data was analyzed using Spectronaut V15.7.2 (Biognosys AG) direct DIA analysis using an isoform Rat database (UniProt downloaded 22.02.2021) consisting of 9,746 protein entries utilizing the Pulsar search engine. Analysis settings were maintained to factory settings and identification was set to 1% false discovery rate (FDR) for precursor and protein level. Additional information is provided in Supplementary M&M.
# Data analysis was performed using R Statistical Software (version 4.3.0). Proteomics, transcriptomics and metabolomics expression changes were visualised using heatmaps showing log2 fold change relative to control. In the heatmaps missing values were highlighted in grey.
# Proteomics Analysis. Liver tissue was placed in vials containing 1.4 mm zirconia beads and taken up in 500 µL of PreOmics iST buffer (PreOmics). In a cold room set to 4 °C, tissues were homogenized utilizing a bead Ruptor 12 by shaking for 30 seconds for a total of 5 times using ‘high’ setting. Lysate was normalized using BCA assay (Thermo Fisher Scientific), and subsequently incubated at 95 °C for 10 min for reduction, and alkylation of proteins. A total of 50 μg from each sample was subjected to enzymatic cleavage for 3 h by adding equal amounts of endoproteinase Lys-C and trypsin (ThermoFisher Scientific, # A40009) in a 1:50 (wt/wt) enzyme:protein ratio. De-salting and purification were performed according to the PreOmics iST protocol on a styrene divinylbenzene reversed-phase sulfonate sorbent. Purified peptides were vacuum-centrifuged to dryness and reconstituted in double-distilled water with 2 vol% ACN and 0.1 vol% formic acid (FA) for single-run LC-MS analysis.
# Peptides were loaded onto a ReproSil-Pur 120 C18AQ 1.9 µm in-house packed to a 5 µm tip 75u ID × 360u × 50 cm column using Thermo EASY-nLC 1200 coupled online to an Exploris 480 Mass Spectrometer equipped with a Nanospray Flex Ion Source integrated with a column oven (PRSO-V1, Sonation) maintained at 50 °C. Peptides were separated using a nonlinear gradient: Mobile phase A was 0.1 vol% FA and 3 vol% acetonitrile (ACN) in water, Mobile phase B was 90 vol% ACN and 0.1 vol % FA. The gradient was operated at 250 nL/min flowing 3 vol% B for 3 min, 3 to 5 vol% B over 3 min, 5 to 17 vol % B over 120 min, 17 to 24 vol % B over 26 min, 24 to 30 vol% B over 14 min, 30 to 85 vol% B over 3 min.
compound,measurement,setting,value
Cn1cc2cc(-c3cc4[nH]nc(C5CC5)c4n(-c4ccc(OC(F)F)cc4)c3=O)ccc2n1 [AZ’9567],Cfdp1 Log2FC,"liver protein, 30mg/kg",0.5
same,Chid1 Log2FC,"liver protein, 30mg/kg",1.0
same,Comt Log2FC,"liver protein, 30mg/kg",-0.6
same,Coq4 Log2FC,"liver protein, 30mg/kg",0.7
same,Csad Log2FC,"liver protein, 30mg/kg",-1.1
same,Ctbs Log2FC,"liver protein, 30mg/kg",-0.7
same,Cyp2c23 Log2FC,"liver protein, 30mg/kg",-0.9
same,Cyp4a2 Log2FC,"liver protein, 30mg/kg",1.3
same,Cyp4a10 Log2FC,"liver protein, 30mg/kg",1.1
same,Dbnl Log2FC,"liver protein, 30mg/kg",0.7
same,Dcakd Log2FC,"liver protein, 30mg/kg",1.3
same,Dkc1 Log2FC,"liver protein, 30mg/kg",0.6
same,Dmgdh Log2FC,"liver protein, 30mg/kg",0.7
same,Dohh Log2FC,"liver protein, 30mg/kg",0.7
same,Eif4ebp1 Log2FC,"liver protein, 30mg/kg",1.0
same,Enpep Log2FC,"liver protein, 30mg/kg",-1.2
same,Fabp4 Log2FC,"liver protein, 30mg/kg",1.1
same,Fabp5 Log2FC,"liver protein, 30mg/kg",-1.0
same,Fads1 Log2FC,"liver protein, 30mg/kg",-1.6
same,Fasn Log2FC,"liver protein, 30mg/kg",-0.7
same,Fdft1 Log2FC,"liver protein, 30mg/kg",1.1
same,Fdps Log2FC,"liver protein, 30mg/kg",0.5
same,Fgr Log2FC,"liver protein, 30mg/kg",1.8
same,Gimd1 Log2FC,"liver protein, 30mg/kg",-0.7
same,Gmpr Log2FC,"liver protein, 30mg/kg",0.8
same,Gnl3 Log2FC,"liver protein, 30mg/kg",0.8
same,Gnmt Log2FC,"liver protein, 30mg/kg",1.7
same,Gpcpd1 Log2FC,"liver protein, 30mg/kg",1.8
same,Gstm1 Log2FC,"liver protein, 30mg/kg",-0.8
same,Gstm2 Log2FC,"liver protein, 30mg/kg",-0.9
same,Gtpbp4 Log2FC,"liver protein, 30mg/kg",0.8
same,Hexa Log2FC,"liver protein, 30mg/kg",-0.6
same,Hfe Log2FC,"liver protein, 30mg/kg",1.0
same,Hmgcs1 Log2FC,"liver protein, 30mg/kg",1.6
same,Hmgn2 Log2FC,"liver protein, 30mg/kg",1.2
same,Hnrnpa1 Log2FC,"liver protein, 30mg/kg",1.5
same,Hsd17b7 Log2FC,"liver protein, 30mg/kg",0.6
same,Idi1 Log2FC,"liver protein, 30mg/kg",1.3
same,Igf1 Log2FC,"liver protein, 30mg/kg",-1.6
same,Kalrn Log2FC,"liver protein, 30mg/kg",0.6
same,Lipa Log2FC,"liver protein, 30mg/kg",-0.5
same,Lrrc8d Log2FC,"liver protein, 30mg/kg",0.8
same,Lyrm2 Log2FC,"liver protein, 30mg/kg",0.7
same,Mat1a Log2FC,"liver protein, 30mg/kg",0.6
same,Mat2a Log2FC,"liver protein, 30mg/kg",0.8
same,Mat2b Log2FC,"liver protein, 30mg/kg",-2.7
same,Me1 Log2FC,"liver protein, 30mg/kg",-1.0
same,Mettl7b Log2FC,"liver protein, 30mg/kg",-1.0
same,Mettl26 Log2FC,"liver protein, 30mg/kg",-1.8
same,Minpp1 Log2FC,"liver protein, 30mg/kg",1.5
same,Mospd1 Log2FC,"liver protein, 30mg/kg",-0.7
same,Mt1 Log2FC,"liver protein, 30mg/kg",6.5
same,Mtr Log2FC,"liver protein, 30mg/kg",1.1
same,Mybbp1a Log2FC,"liver protein, 30mg/kg",1.0
same,Ncl Log2FC,"liver protein, 30mg/kg",0.8
same,Nob1 Log2FC,"liver protein, 30mg/kg",0.9
same,Orm1 Log2FC,"liver protein, 30mg/kg",1.5
same,Paics Log2FC,"liver protein, 30mg/kg",0.7
same,Pcyt1a Log2FC,"liver protein, 30mg/kg",0.8
same,Pklr.1 Log2FC,"liver protein, 30mg/kg",-1.1
same,Prmt1 Log2FC,"liver protein, 30mg/kg",0.7
same,Pspc1 Log2FC,"liver protein, 30mg/kg",0.7
same,Ptprs Log2FC,"liver protein, 30mg/kg",-1.0
same,Pum3 Log2FC,"liver protein, 30mg/kg",1.0
same,Rbm3 Log2FC,"liver protein, 30mg/kg",1.0
same,Rgn Log2FC,"liver protein, 30mg/kg",-0.7
same,Rmdn1 Log2FC,"liver protein, 30mg/kg",0.8
same,S1pr1 Log2FC,"liver protein, 30mg/kg",-0.8
same,Scd1 Log2FC,"liver protein, 30mg/kg",-3.2
same,Sh3glb1 Log2FC,"liver protein, 30mg/kg",0.8
same,Sirt2 Log2FC,"liver protein, 30mg/kg",0.5
same,Slc6a13 Log2FC,"liver protein, 30mg/kg",-1.0
same,Slc22a8 Log2FC,"liver protein, 30mg/kg",-1.4
same,Slc39a4 Log2FC,"liver protein, 30mg/kg",-2.8
same,Sqle Log2FC,"liver protein, 30mg/kg",0.8
same,Srebf1 Log2FC,"liver protein, 30mg/kg",1.3
same,Sts Log2FC,"liver protein, 30mg/kg",-0.6
same,Tat Log2FC,"liver protein, 30mg/kg",-1.6
same,Tceanc2 Log2FC,"liver protein, 30mg/kg",1.3
same,Thg1l Log2FC,"liver protein, 30mg/kg",0.6
same,Tpmt Log2FC,"liver protein, 30mg/kg",-1.4
same,Tspo Log2FC,"liver protein, 30mg/kg",1.9
same,Txnrd2 Log2FC,"liver protein, 30mg/kg",-0.6
same,Ube2f Log2FC,"liver protein, 30mg/kg",0.6
same,Ugt2b1 Log2FC,"liver protein, 30mg/kg",-1.1
same,Wdr45 Log2FC,"liver protein, 30mg/kg",-1.1
same,Ythdc1 Log2FC,"liver protein, 30mg/kg",0.5
same,mvd Log2FC,"liver protein, 30mg/kg",0.9
same,differentially expressed liver proteins vs vehicle control,"middle dose (10 mg/kg BID), adjusted p < 0.05 and Log2 FC > 0.5 or < −0.5",467
